One assay addresses Transthyretin (Homo sapiens, UniProt P02766). The experiment in a line: Luminescence-based cell-based high throughput dose response assay to identify activators of Transthyretin (TTR) transcription. The format is functional.
Assay [1] in a line: Luminescence Cell-Based Dose Response HTS to Identify Activators of Luciferase Translation or Activity in H4 […] Cells. [Related pubchem assays: 1829 (Project Summary), 1814 (Primary HTS)]. Type of assay: functional.
The next assay concerns H4. The experiment in a line: Luminescence Cell-Based Dose Response HTS to Identify Activators of 5'UTR Stem-Loop Driven Prion Protein mRNA Translation in H4 Neuroglioblastoma Cells. [Related pubchem assays: 1829 (Project Summary), 1814 (Primary HTS)]. Type of assay: functional. To be noted: Homo sapiens.
Assay [2] in a line: Luminescence Cell-Based Dose Confirmation HTS to Identify Activators of 5'UTR Stem-Loop Driven Alpha-Synuclein mRNA Translation in H4 Neuroglioblastoma Cells. [Related pubchem assays: 1829 (Project Summary), 1814 (Primary HTS)]. The format is functional.
The target of a further assay is T1, Protein skinhead-1 (Caenorhabditis elegans, UniProt P34707).
T1 sequence (P34707 whole entry): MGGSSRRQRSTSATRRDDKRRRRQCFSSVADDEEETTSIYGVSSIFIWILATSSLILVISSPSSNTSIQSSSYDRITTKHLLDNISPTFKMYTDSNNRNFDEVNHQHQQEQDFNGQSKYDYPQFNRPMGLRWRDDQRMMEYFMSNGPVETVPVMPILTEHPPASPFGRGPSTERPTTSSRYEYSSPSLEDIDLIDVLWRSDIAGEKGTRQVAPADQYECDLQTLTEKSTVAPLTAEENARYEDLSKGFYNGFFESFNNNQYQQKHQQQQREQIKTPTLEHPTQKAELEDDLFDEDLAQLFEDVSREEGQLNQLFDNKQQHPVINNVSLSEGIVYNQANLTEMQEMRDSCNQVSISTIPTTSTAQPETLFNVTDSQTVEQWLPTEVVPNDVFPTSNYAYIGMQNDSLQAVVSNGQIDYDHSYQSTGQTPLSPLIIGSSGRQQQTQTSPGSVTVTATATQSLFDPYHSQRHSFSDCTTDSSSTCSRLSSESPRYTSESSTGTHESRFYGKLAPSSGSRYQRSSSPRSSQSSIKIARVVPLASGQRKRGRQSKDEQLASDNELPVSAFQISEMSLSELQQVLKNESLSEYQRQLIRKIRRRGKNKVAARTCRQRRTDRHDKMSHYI
The format is functional.

The target of assay [3] is T2, Oxysterols receptor LXR-beta (Homo sapiens, UniProt P55055).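 Further: Cell-based luminescence dose-response assay of agonist activity at LXR, run as a confirmatory counterscreen to a daf-12 agonist screen; HEK293 cells with Gal4-LXR fusion and GAL4-driven luciferase reporter; agonist potency from rising luciferase signal of a Gal4-LXR reporter.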
T2 sequence (P55055 whole entry): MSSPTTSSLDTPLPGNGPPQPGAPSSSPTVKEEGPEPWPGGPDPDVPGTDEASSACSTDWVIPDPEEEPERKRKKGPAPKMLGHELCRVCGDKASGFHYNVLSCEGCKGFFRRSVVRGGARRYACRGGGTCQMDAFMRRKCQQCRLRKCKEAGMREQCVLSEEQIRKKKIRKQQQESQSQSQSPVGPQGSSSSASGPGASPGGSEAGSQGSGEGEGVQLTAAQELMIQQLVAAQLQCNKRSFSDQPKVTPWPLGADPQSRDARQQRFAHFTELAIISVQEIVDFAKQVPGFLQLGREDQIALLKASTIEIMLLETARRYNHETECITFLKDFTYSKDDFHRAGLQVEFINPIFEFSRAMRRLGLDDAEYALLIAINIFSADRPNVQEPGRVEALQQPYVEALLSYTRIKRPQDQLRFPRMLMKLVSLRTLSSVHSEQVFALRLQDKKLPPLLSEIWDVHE
The format is functional, cell-based.

A further assay concerns the target Kallikrein-7 (Homo sapiens, UniProt P49862). The experiment in a line: Fluorescence Intensity-based biochemical primary high throughput dose response assay to identify activators of kallikrein-7 (K7) zymogen.
The nature of assay [4]: inhibitors of non-replicating M. tuberculosis, dose response, luciferase, dry powder (AID 651620). The conditions noted are these: Mycobacterium tuberculosis. The format is functional.
Assay [5] in a line: cytotoxicity in HepG2 cells, dose response, cytotoxicity control, cell-based, plate reader, dry powder (AID 651947). The format is functional.
A short description of assay [6]: inhibitors of non-replicating M. tuberculosis, dose response, luciferase, dry powder (AID 651619). Type of assay: functional. To be noted: Mycobacterium tuberculosis.
The nature of assay [7]: cytotoxicity in HeLa cells, dose response, cytotoxicity control, cell-based, plate reader, dry powder (AID 651946). The format is functional.
The nature of assay [8]: HEK293T cell cytotoxicity, dose response, cytotoxicity control, CellTiter-Glo luminescence, dry powder, set 20 (AID 1117293). Type of assay: functional, cell-based. To be noted: HEK293.
The nature of assay [9]: P. falciparum Dd2 growth inhibitors, dose response, SYBR Green, dry powder samples, set 9 (AID 1159568). Type of assay: functional, cell-based.
Assay [10] in a line: inhibitors of orthopox intermediate gene expression, dose response, cell-based, single fluorophore reporter, dry powder (AID 1117271). Type of assay: functional.
A short description of assay [11]: Single fluorophore orthopox expression reporter, late gene expression Measured in Cell-Based and Microorganism Combination System Using Plate Reader - 2142-08_Inhibitor_Dose_DryPowder_Activity. Type of assay: functional.
Assay [12] is described as follows: A549 cell cytotoxicity, dose response, CellTiter-Glo luminescence, dry powder, set 17 (AID 1117284). Type of assay: functional, cell-based.
Assay [13] is described as follows: Orthopox viral replication plaque formation Measured in Cell-Based and Microorganism Combination System Using Imaging - 2142-05_Inhibitor_Dose_DryPowder_Activity. The format is functional.
Assay [14] has as its target RNA-editing ligase 1, mitochondrial (Trypanosoma brucei brucei, UniProt P86926). The experiment in a line: TbREL1 ligase inhibitors, dose response, biochemical, fluorescence, Trypanosoma brucei (AID 1117295). The format is functional.

Consider eight compounds from ChEMBL document CHEMBL1201862, “PubChem BioAssay data set” (2004).

The source made the active and inactive calls. Unless noted, the calls are words filed in the database; no cut-off is given here.

Chain of RNA-editing ligase 1, mitochondrial (P86926 whole entry): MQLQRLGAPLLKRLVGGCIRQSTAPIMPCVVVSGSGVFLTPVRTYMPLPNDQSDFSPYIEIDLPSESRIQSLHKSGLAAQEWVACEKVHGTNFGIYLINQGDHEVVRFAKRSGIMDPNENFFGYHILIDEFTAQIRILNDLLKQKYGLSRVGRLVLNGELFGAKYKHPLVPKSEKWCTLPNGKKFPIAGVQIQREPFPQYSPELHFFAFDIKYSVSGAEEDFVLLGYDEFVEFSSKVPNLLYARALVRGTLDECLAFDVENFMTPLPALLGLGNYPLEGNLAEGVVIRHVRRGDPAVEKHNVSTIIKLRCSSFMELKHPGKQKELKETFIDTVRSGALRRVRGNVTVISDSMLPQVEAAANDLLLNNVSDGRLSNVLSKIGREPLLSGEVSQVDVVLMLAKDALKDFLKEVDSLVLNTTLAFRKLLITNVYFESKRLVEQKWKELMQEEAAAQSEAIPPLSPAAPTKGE
Chain of Kallikrein-7 (P49862 whole entry): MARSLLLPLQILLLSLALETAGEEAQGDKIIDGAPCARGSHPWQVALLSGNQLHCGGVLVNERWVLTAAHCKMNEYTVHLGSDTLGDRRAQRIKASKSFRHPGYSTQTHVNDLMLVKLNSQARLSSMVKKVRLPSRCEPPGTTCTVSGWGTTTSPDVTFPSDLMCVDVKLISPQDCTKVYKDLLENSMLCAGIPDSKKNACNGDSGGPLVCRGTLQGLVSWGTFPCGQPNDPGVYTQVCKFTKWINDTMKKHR

With `Cc1c(Br)c(C(=O)N2CCc3ccccc32)nn1C`, the EC50 is > 167 µM (inactive) on Transthyretin, 6.16 µM (active) in [1], 99.2 µM (active) with H4 and 11.7 µM (active) in assay [2].

With `CNc1ccc(C=C2C=Cc3ccccc32)cc1`, the IC50 at Protein skinhead-1 was 20.5 µM (active). The EC50 (in the assay “cells”; in assay [3]) was > 67.6 µM (inactive) in each case.

With `COC(=O)c1ccc(N2C(c3cc(OC)cc(OC)c3)=Cc3ccc(-c4ccc(C(N)=O)cc4)cc3C2CC(=O)C2CC2)cc1` (centres undefined), on Kallikrein-7, the EC50 is > 7.72 µM (active).

On to `c1ccc(Sc2nnc(-c3ccccc3)o2)cc1`, for which the IC90 in assay [4] and in [6] was 1 µM (active) each time. In addition, the results for the AC50 in [5] and in assay [7] were 42.9 µM (active) and > 52 µM (inactive), respectively.

As to `O=S(=O)(Nc1cc(C(F)(F)F)ccc1N1CCCCC1)c1ccc(-c2ccccc2)cc1`, in assay [8], the AC50 was 0.852 µM (active).

Regarding `O=C(Nc1ccccc1F)N1CCCCN2[C@H](C1)[C@H](c1ccc(/C=C/c3ccccc3)cc1)[C@@H]2CO`, in [9], the concentration at half-maximal activity (AC50) is 3.61 µM (active).

For the compound `Cc1ccc(-c2ccc(CN(C)C[C@@H]3Oc4cc(C#C[C@@H](C)O)ccc4S(=O)(=O)N([C@@H](C)CO)C[C@@H]3C)cc2)cc1`, the AC50 in [10] was 1.95 µM (active); in [11], 1.13 µM (active); in [12], > 52 µM (inactive); in assay [13] it was 1.76 µM (active).

On to `COC(=O)C1=C(C)N(Cc2ccc(C(F)(F)F)cc2)C(NCc2ccc(OC)cc2)=NC1c1ccccc1C(F)(F)F` (centres undefined), for which, in assay [14], the IC50 is > 96.6 µM (inactive).
